pIC50: −log10 of the molar value. Counter-ions that a name gives are not always drawn.
Key:
Human MAO-B = molecular target: T1, Human MAO-B (Homo sapiens, UniProt P27338); test: Inhibition of recombinant MAO-B (Amplex Red); assay type: biochemical; settings: 50 μM benzylamine
T1 sequence (P27338 1-520): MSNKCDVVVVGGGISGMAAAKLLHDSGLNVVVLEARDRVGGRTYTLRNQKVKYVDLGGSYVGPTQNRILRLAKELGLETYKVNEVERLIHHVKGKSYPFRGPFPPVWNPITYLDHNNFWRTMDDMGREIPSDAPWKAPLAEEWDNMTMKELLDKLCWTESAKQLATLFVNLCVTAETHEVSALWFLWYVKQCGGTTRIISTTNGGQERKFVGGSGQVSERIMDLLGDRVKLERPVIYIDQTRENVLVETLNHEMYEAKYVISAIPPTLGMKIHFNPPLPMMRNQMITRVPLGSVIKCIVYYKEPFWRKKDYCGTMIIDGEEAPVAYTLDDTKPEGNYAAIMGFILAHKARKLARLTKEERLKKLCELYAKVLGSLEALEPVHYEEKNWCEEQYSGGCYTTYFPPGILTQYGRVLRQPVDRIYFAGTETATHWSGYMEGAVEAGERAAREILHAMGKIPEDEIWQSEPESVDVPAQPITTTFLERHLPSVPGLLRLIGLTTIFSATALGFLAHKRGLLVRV
Protocol: Recombinant MAO-B was incubated in 0.1 M sodium phosphate buffer pH 7.4 with varying concentration of test compounds for 30 min at 37° C. The homogenate/protein was then incubated at 37° C. with […] Amplex® Red, 0.75 U/ml HRP and 40 μM benzylamine (mouse SSAO), 300 μM benzylamine (human SSAO), 100 μM tyramine (MAO-A) or 50 μM benzylamine (MAO-B) and the formation of resorufin was measured (excitation range 530-560 nm and emission at 590 nm) every 5 min in either a Tecan Infinite 200 or a BMG Fluorostar Optima platereader. IC50 were estimated using Graphpad Prism software.

Mouse SSAO/VAP-1 = molecular target: T2, Mouse SSAO/VAP-1 (Mus musculus, UniProt O70423); test: Inhibition of amine oxidase activity of mouse SSAO/VAP-1 (3T3-L1 adipocytes, Amplex Red); assay type: biochemical; settings: 3T3-L1 adipocyte SSAO, 40 μM benzylamine
T2 construct: Adipocytes were used as an SSAO source either as adherent cells or as a homogenate; endogenous in cells; host or cells: 3T3-L1 murine fibroblasts (ATCC) differentiated into adipocytes
T2 sequence (O70423 1-765): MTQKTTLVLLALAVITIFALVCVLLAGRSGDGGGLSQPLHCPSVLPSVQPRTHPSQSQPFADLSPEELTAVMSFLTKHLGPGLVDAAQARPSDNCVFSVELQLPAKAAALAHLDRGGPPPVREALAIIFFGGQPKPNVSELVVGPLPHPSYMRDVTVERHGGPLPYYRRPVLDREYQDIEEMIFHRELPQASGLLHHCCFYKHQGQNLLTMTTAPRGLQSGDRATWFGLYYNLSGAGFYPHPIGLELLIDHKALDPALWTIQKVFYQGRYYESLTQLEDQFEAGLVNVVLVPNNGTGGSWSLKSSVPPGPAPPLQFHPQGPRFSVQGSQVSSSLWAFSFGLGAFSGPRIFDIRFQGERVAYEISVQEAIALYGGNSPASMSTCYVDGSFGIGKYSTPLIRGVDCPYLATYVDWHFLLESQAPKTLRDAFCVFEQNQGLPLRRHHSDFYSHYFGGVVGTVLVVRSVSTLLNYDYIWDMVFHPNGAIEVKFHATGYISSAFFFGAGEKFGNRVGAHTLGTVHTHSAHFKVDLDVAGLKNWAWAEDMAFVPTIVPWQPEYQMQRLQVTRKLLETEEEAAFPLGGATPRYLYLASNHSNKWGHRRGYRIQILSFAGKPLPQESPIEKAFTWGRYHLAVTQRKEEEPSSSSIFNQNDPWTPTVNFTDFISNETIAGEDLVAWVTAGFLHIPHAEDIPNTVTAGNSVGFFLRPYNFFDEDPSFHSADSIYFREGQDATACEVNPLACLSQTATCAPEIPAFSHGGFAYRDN
Text: 3T3-L1 Murine fibroblasts were purchased from the American Type Culture Collection (ATCC, Rockville, Md.). Dulbecco's Modified Eagle Medium (DMEM) and fetal calf serum (FCS), antibiotics and Amplex® Red were obtained from Invitrogen (Carlsbad, Calif.). Tissue culture plastics and black clear-bottom 96 well plates were from BD Falcon (Bedford, Mass.). Bicinchoninic acid (BCA) reagent was from Pierce (Rockford, Ill.). All other materials were obtained from Sigma (St. Louis, Mo.).
3T3-L1 Fibroblasts were cultured in DMEM supplemented with 10% heat-inactivated FCS, 2 mM L-glutamine, 100 U/L penicillin and 100 μg/L streptomycin at 37° C. in 5% CO2. For differentiation into adipocytes, fibroblasts were cultured in DMEM with FCS for 1 or 2 days postconfluence, after which the cells were cultured for 3 days in DMEM containing 10% FCS, 350 nM insulin, 0.5 mM 3-isobutyl-1-methylxanthine, 250 nM dexamethasone, and 400 nM biotin and for 3 days in DMEM containing 10% FCS and 350 nM insulin. After differentiation, adipocytes were maintained in DMEM supplemented with 10% FCS. Adipocytes were used for experiments 8 to 11 days after the onset of differentiation, and the medium was renewed 2 or 3 days prior to each experiment. For culturing in black clear-bottom 96-well plates, cells were seeded at a 1:1 cell surface ratio, and differentiation was initiated 4 days postseeding. Cells were used between days 6-12 post-differentiation and between passages 7 and 20. Adipocytes were used as an SSAO source either as adherent cells or as a homogenate.
To prepare homogenate, 10 cm dishes of adipocytes were washed with HES buffer (20 mM HEPES, 1 mM EDTA, 250 mM sucrose, pH 7.4) and scraped in HES buffer containing 10 μg/mL leupeptin, 10 μM pepstatin and 1 mM PMSF. Cells were lysed by passage through a 23 G needle followed by passage through a 27 G needle. The lysate was spun at 500 g for 5 min and fat was removed. Protein concentration of the supernatant was measured using a BCA assay according to the manufacturer's instructions. The homogenate was stored at −80° C. until needed.
To measure the SSAO activity, adipocyte homogenate (0.5 mg/mL) or adipocytes (adhering cells) containing 0.5 mM pargyline, or purified human SSAO was incubated in 0.1 M sodium phosphate buffer pH 7.4 with varying concentrations of test compounds for 30 min at 37° C. The homogenate was then incubated at 37° C. with 60 μM Amplex® Red, 0.75 U/mL HRP and 40 μM benzylamine (mouse SSAO) or 300 μM benzylamine (human SSAO) and the formation of resorufin was measured (excitation range 530-560 nm and emission at 590 nm) every 10 min in either a Tecan Infinite 200 or a BMG plate reader. The IC50 values were estimated using Graphpad Prism software. The IC50 is an estimation of the concentration of the test compound to inhibit the amine oxidase activity of SSAO/VAP-1 by 50%. The IC50 values of certain invention compounds are included in Table 1.

pIC50 (Human MAO-B; 30 min at 37° C. preincubation) | pIC50 (Mouse SSAO/VAP-1; 30 min at 37° C. preincubation) | pIC50 (Human MAO-B) | pIC50 (Mouse SSAO/VAP-1) | Structure (SMILES)
> 4.00 | > 6.00 |  |  | Cc1nc2cc(OC/C(F)=C\CN)ccc2s1.Cl [(E)-3-Fluoro-4-(2-methylbenzo[d]thiazol-5-yloxy)but-2-en-1-amine hydrochloride]
> 4.00 | > 6.00 |  |  | CS(=O)(=O)c1ccc(OC/C(F)=C\CN)cc1.Cl [(E)-3-Fluoro-4-(4-(methylsulfonyl)phenoxy)but-2-en-1-amine hydrochloride]
> 6.00 | > 6.00 |  |  | C[C@H](NS(=O)(=O)c1ccc(OC/C(F)=C\CN)cc1)c1ccccc1.Cl [(S,E)-4-(4-Amino-2-fluorobut-2-enyloxy)-N-(1-phenylethyl)benzenesulfonamide]

The next lines start with the compound.

Structure (SMILES) | pIC50 (Human MAO-B; 30 min at 37° C. preincubation) | pIC50 (Mouse SSAO/VAP-1; 30 min at 37° C. preincubation) | pIC50 (Human MAO-B) | pIC50 (Mouse SSAO/VAP-1)
NC/C=C(/F)COc1ccc(C(=O)NC2CCCCC2)cc1 [(E)-4-(4-amino-2-fluorobut-2-enyloxy)-N-cyclohexylbenzamide hydrochloride] | > 6.00 | > 6.00 |  | 
NC/C(=C/F)CCc1ccc(F)cc1 [Mofegiline, reference compound] |  |  | 8.40 | 9.00

— US8426587B2, “Haloallylamine inhibitors of SSAO/VAP-1 and uses therefor” (Pharmaxis Ltd., priority 2007, dated 2013)
